Reference: paper PMC8620494, “Synthesis of Purine-Based Ionic Liquids and Their Applications” (Molecules, 2021)
Like-named read-outs stand apart in the source and are kept apart here.

Assays:
Raphidocelis subcapitata = details: for Acute hazard category according to European legislation: based on 96 h EC50 in mg∙L^−1; for EC50: 96 h incubation, microalgae yield, 95% confidence limits in parenthesis
Method: The microalgae ecotoxicity assays were conducted, as previously described in detail, using the microalgae Raphidocelis subcapitata, i.e., following the guidelines of OECD [38], and adapted to the use of 24-well microplates. […] The microalgae were exposed to a range of concentrations of each salt, and all the assays, including the MBL blank control, were conducted in triplicate. The microplates were incubated for 96 h, under controlled incubation conditions, as used for the inoculum. After that time, the microalgae yield in each treatment was calculated as the difference between the cell densities at the end and beginning of the test.

[1] = Method: Samples were quantified, as previously described, at 316 nm (see Figure S1). All assays were performed in triplicates. To verify the integrity of the IL, the liquid phase was analyzed by ^1H and ^13C NMR.
[2] = remark: listed apart in the source
Description: Theobromine has relatively strong intermolecular hydrogen bonding between its carbonyl groups and strong π–π stacking interactions. In theophylline, the hydrogen between the two carbonyl groups is replaced by a methyl group, causing the previously mentioned interactions to be weaker. […] Adding alkyl groups to ILs usually lowers their solubility. […] The overall poor solubility of purines is connected to their inter-base hydrogen bonding. The insertion of the methyl groups replaces protons that would otherwise be available to form inter-base hydrogen bonds.

[3] = for Aqueous solubility enhancement (S/S0) of the salt relative to its free purine: S molar water-solubility of salt at 298 K, S0 of free purine from PubChem; for Molar water-solubility (S): pure water, 72 h, shake-flask; for Molar water-solubility (S) / pH saturated (pH of the saturated IL solution): (298 ± 1) K; for pH saturated (pH of the saturated IL solution): saturated aqueous solution
Method: IL solubility studies were performed using the isothermal shake-flask method, as reported in the literature. […] If needed, samples were centrifuged for 2 min at 12,000 rpm. Samples of the liquid phase were collected and diluted in distilled water, followed by the preparation of a calibration curve for each compound of interest. The amount of compound in the liquid phase was quantified using a UV–Vis Synergy HT microplate reader from BioTek (Winooski, VT, USA). […] All assays were performed in triplicate. The pH (±0.02) of the samples was determined by using a Mettler Toledo SevenMultiTMdual pH meter.

[4] = TGA, nitrogen, 2 K·min^−1, peak of the derivative
Method: The melting temperatures (Tm) were measured in a differential scanning calorimetry (DSC), using a Hitachi DSC7000X equipment at atmospheric pressure, with hermetically sealed aluminum crucibles and a constant flow of nitrogen. […] Each sample underwent three cycles of cooling and heating, at 5 K∙min^−1 and 2 K∙min^−1, respectively. The melting point of each compound was taken as the peak temperature. The determined melting points are estimated to have a 1 K uncertainty. […] Each sample was heated in an aluminia pan, under a nitrogen atmosphere, with a heating rate of 2 K·min^−1. The degradation temperature-associated uncertainty is estimated to be 0.01 K. Degradation temperature was taken as the peak temperature of the derivative.

[5] = cited from earlier work
[6] = IL solution 0.05 mol∙L-1 before addition of ferulic acid
[7] = IL solution 0.05 mol∙L-1 saturated with ferulic acid
[8] = IL solution 0.1 mol∙L-1 before addition of ferulic acid
[9] = IL solution 0.1 mol∙L-1 saturated with ferulic acid
[10] = IL solution 0.25 mol∙L-1 before addition of ferulic acid
[11] = IL solution 0.25 mol∙L-1 saturated with ferulic acid
[12] = IL solution 0.5 mol∙L-1 before addition of ferulic acid
[13] = IL solution 0.5 mol∙L-1 saturated with ferulic acid
[14] = IL solution 1.0 mol∙L-1 before addition of ferulic acid
[15] = IL solution 1.0 mol∙L-1 saturated with ferulic acid
[16] = IL solution 1.5 mol∙L-1 before addition of ferulic acid
[17] = IL solution 1.5 mol∙L-1 saturated with ferulic acid

| Compound | Initial solution pH [1, 6] | Saturated solution pH [1, 7] | Initial solution pH [1, 8] | Saturated solution pH [1, 9] | Initial solution pH [1, 10] | Saturated solution pH [1, 11] | Initial solution pH [1, 12] | Saturated solution pH [1, 13] | Molar water-solubility (S) [3] [mM] | pH saturated (pH of the saturated IL solution) [3] | Decomposition temperature (Td) [4] [K] | other results |
| --- | --- | --- | --- | --- | --- | --- | --- | --- | --- | --- | --- | --- |
| CCCC[N+](CCCC)(CCCC)CCCC.[Cl-] [[N4444]Cl, tetrabutylammonium chloride, reference compound] | 5.71 | 3.29 | 6.31 | 2.89 | 5.62 | 2.63 | 4.26 | 2.36 | – | – | – | Acute hazard category according to European legislation (Raphidocelis subcapitata): acute 2 (acute 2 category (1 < EC50 < 10 mg∙L^−1)); Initial solution pH [1, 14]: 4.04; Saturated solution pH [1, 15]: 2.10; Initial solution pH [1, 16]: 4.20; Saturated solution pH [1, 17]: 2.26; pH initial ([2]; initial aqueous solution of [N4444]Cl 1.0 mol∙L-1): 4.23 |
| CCCC[N+](CCCC)(CCCC)CCCC.Cn1cnc2c1c(=O)[n-]c(=O)n2C [[N4444][Theob], Tetrabutylammonium theobrominate] | 10.85 | 5.36 | 11.56 | 5.54 | 11.80 | 8.51 | 11.98 | 9.62 | 1590 ± 70 | 12.76 | 457 ± 1 | Aqueous solubility enhancement (S/S0) of the salt relative to its free purine [3]: 870 fold; S/S0 of ferulic acid recalculated with S0 at a similar pH to that of the sample ([1]; all tested IL concentrations, 303 K): < 1 |
| CCCC[N+](CCCC)(CCCC)CCCC.Cn1c(=O)c2[n-]cnc2n(C)c1=O [[N4444][Theop], Tetrabutylammonium theophyllinate] | 8.91 | 5.30 | 10.52 | 6.44 | 10.81 | 6.56 | 10.78 | 7.65 | 2200 ± 100 | 10.89 | 486 ± 1 | Aqueous solubility enhancement (S/S0) of the salt relative to its free purine [3]: 53 fold; Initial solution pH [1, 14]: 11.06; Saturated solution pH [1, 15]: 8.63; Initial solution pH [1, 16]: 10.68; Saturated solution pH [1, 17]: 9.95 |
| CCCC[N+](CCCC)(CCCC)CCCC.O=c1[n-]c2[nH]c(=O)[nH]c2c(=O)[nH]1 [[N4444][Ur], Tetrabutylammonium urate] | – | – | – | – | – | – | – | – | 96 ± 7 | 8.31 | 505 ± 1 | EC50 (Raphidocelis subcapitata): 2.7 mg/L |
| CCCC[N+](CCCC)(CCCC)CCCC.O=c1[nH]c(=O)c2[n-]cnc2[nH]1 [[N4444][Xan], Tetrabutylammonium xanthinate] | – | – | – | – | – | – | – | – | 170 ± 10 | 10.14 | 495 ± 1 | EC50 (Raphidocelis subcapitata): 0.8 mg/L; Acute hazard category according to European legislation (Raphidocelis subcapitata): acute 1 (acute 1 category (EC50 < 1 mg∙L^−1)) |
| O.O=c1[nH]c2nc([O-])nc([O-])c2[nH]1.[K+].[K+] [potassium urate] | – | – | – | – | – | – | – | – | – | – | – | Water-solubility of other urate salts [5]: 12.06 mM |
| Cn1c(=O)c2[n-]cnc2n(C)c1=O.[Na+] [sodium theophyllinate] | – | – | – | – | – | – | – | – | – | – | – | Molar solubility of sodium theophyllinate in pure water (S0) [2]: 260 ± 10 mM; pH saturated ([2]; [N4444]Cl 1.0 mol∙L-1 solution saturated with sodium theophyllinate): 10.55 |
| O=c1[nH]c(=O)c2[nH]c([O-])nc2[nH]1.[Na+] [sodium urate] | – | – | – | – | – | – | – | – | – | – | – | Water-solubility of other urate salts [5]: 6.76 mM |
| O=c1[nH]c(=O)c2[nH]c(=O)[nH]c2[nH]1 [uric acid] | – | – | – | – | – | – | – | – | – | – | – | Molar water-solubility of the free purine (S0) ([5]; (293 ± 1) K, ref PubChem [53]): 0.357 mM |
